Read-outs that look alike come from different tables or passages of the source.
Experiments:
Format in all cases: in vivo
[1] = test system: Matricaria inodora (MATIN); test: Pre-emergence herbicidal action against MATIN
Method in brief: (§1)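 Seeds sown in pots and covered with soil; WP or EC formulations sprayed onto the soil surface at 600 l/ha water with 0.5% additive, at 320 g/ha or lower. Greenhouse growth for about 3 weeks, then visual scoring as % effect against untreated controls (100% = plants dead).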

[2] = test system: Digitaria sanguinalis (DIGSA); test: Post-emergence herbicidal action against DIGSA; settings: visual rating about 3 weeks after treatment
Method in brief: (§2)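 Post-emergence greenhouse spray, one-leaf stage, 600 l/ha water plus 0.5% additive; WP or EC formulations; application rates 320 g/ha or lower. Visual % damage vs untreated controls at ~3 weeks.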

[3] = test system: Alopecurus myosuroides (ALOMY); test: Post-emergence herbicidal action against ALOMY; settings: visual rating about 3 weeks after treatment vs untreated controls (100% = plants have died, 0% = like control plants)
Method in brief: as §2

[4] = test system: Polygonum convolvulus (POLCO); test: Pre-emergence herbicidal action against POLCO
Method in brief: as §1

Setaria viridis (SETVI) [5] = test: Post-emergence herbicidal action against SETVI
Method in brief: as §2

Lolium rigidum (LOLRI) [6] = test: Pre-emergence herbicidal action against LOLRI
Method in brief: as §1

Viola tricolor (VIOTR) [7] = test: Pre-emergence herbicidal action against VIOTR
Method in brief: as §1

[8] = test system: Polygonum convolvulus (POLCO); test: Post-emergence herbicidal action against POLCO
Method in brief: as §2

[9] = test system: Pharbitis purpurea (PHBPU); test: Pre-emergence herbicidal action against PHBPU; settings: dosage 320 g/ha
Method in brief: as §1

[10] = test system: Amaranthus retroflexus (AMARE); test: Pre-emergence herbicidal action against AMARE; settings: visual scoring after about 3 weeks vs untreated controls
Method in brief: as §1

[11] = test system: Pharbitis purpurea (PHBPU); test: Post-emergence herbicidal action against PHBPU
Method in brief: as §2

[12] = test system: Digitaria sanguinalis (DIGSA); test: Pre-emergence herbicidal action against DIGSA
Text: Seeds of monocotyledonous and dicotyledonous weed plants and crop plants are placed in plastic or organic planting pots and covered with soil. The compounds of the invention, formulated in the form of wettable powders (WP) or as emulsion concentrates (EC), are then applied to the surface of the covering soil as aqueous suspension or emulsion with addition of 0.5% additive at a water application rate equivalent to 600 l/ha. After the treatment, the pots are placed in a greenhouse and kept under good growth conditions for the trial plants. After about 3 weeks, the effect of the preparations is scored visually in comparison with untreated controls as percentages. For example, 100% activity=the plants have died, 0% activity=like control plants.
Tables A1 to A13 below show the effects of selected compounds of the general formula (I) on various harmful plants and at an application rate corresponding to 320 g/ha or lower, which were obtained by the experimental procedure mentioned above. The appendices “a”, “b” and “c” give differentiation by dosage used with otherwise the same harmful plants tested.

[13] = test system: Echinochloa crus-galli (ECHCG); test: Pre-emergence herbicidal action against ECHCG
Method in brief: as §1

Setaria viridis (SETVI) [14] = test: Pre-emergence herbicidal action against SETVI
Method in brief: as §1

[15] = test system: Alopecurus myosuroides (ALOMY); test: Pre-emergence herbicidal action against ALOMY; settings: scored visually after about 3 weeks, 100% = plants have died
Method in brief: as §1

Avena fatua (AVEFA) [16] = test: Pre-emergence herbicidal action against AVEFA; settings: 320 g/ha, visual scoring after about 3 weeks vs untreated controls
Method in brief: as §1

[17] = test system: Abutilon theophrasti (ABUTH); test: Post-emergence herbicidal action against ABUTH; settings: 80 g/ha, visual rating about 3 weeks after treatment vs untreated controls (100% = plants have died, 0% = like control plants)
Method in brief: as §2

[18] = test system: Echinochloa crus-galli (ECHCG); test: Post-emergence herbicidal action against ECHCG
Method in brief: as §2

[19] = test system: Verconica persica (VERPE); test: Post-emergence herbicidal action against VERPE
Method in brief: as §2

[20] = test system: Amaranthus retroflexus (AMARE); test: Post-emergence herbicidal action against AMARE
Method in brief: as §2

[21] = test system: Verconica persica (VERPE); test: Pre-emergence herbicidal action against VERPE
Method in brief: as §1

Lolium rigidum (LOLRI) [22] = test: Post-emergence herbicidal action against LOLRI
Method in brief: as §2

Avena fatua (AVEFA) [23] = test: Post-emergence herbicidal action against AVEFA; settings: visual rating about 3 weeks after treatment
Method in brief: as §2

Oryza sativa (ORYSA) = settings: crop plant compatibility
Method in brief: (§3)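 Foliar application at the one-leaf stage: WP/EC formulation, 0.5% additive, 600 l/ha water. Greenhouse-grown in sandy loam. Endpoint is visual % injury relative to untreated controls at about 3 weeks.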

Viola tricolor (VIOTR) [24] = test: Post-emergence herbicidal action against VIOTR
Method in brief: as §2

Zea mays (ZEAMX) = test system: Zea mays (ZEAMX)
Method in brief: as §3

[25] = 80 g/ha, visual scoring after about 3 weeks vs untreated controls
[26] = 80 g/ha, visual rating about 3 weeks after treatment vs untreated controls (100% = plants have died, 0% = like control plants)
[27] = 80 g/ha, effect in comparison to untreated controls

SMILES | Pre-emergence action against MATIN in % ([1]; dosage 320 g/ha) | Post-emergence action against DIGSA in % ([2]; 80 g/ha) | Post-emergence action against ALOMY in % ([3]; 80 g/ha) | Pre-emergence action against POLCO in % ([4]; dosage 80 g/ha) | Pre-emergence action against POLCO in % ([4]; dosage 320 g/ha) | Pre-emergence action against LOLRI in % (Lolium rigidum (LOLRI) [6]; dosage 320 g/ha) | Pre-emergence action against VIOTR in % (Viola tricolor (VIOTR) [7]; 320 g/ha, Viola tricolor) | Pre-emergence action against VIOTR in % (Viola tricolor (VIOTR) [7]; dosage 80 g/ha) | Post-emergence action against POLCO in % ([8]; dosage 80 g/ha) | Pre-emergence action against PHBPU in % [9] | Pre-emergence action against AMARE in % ([10]; 320 g/ha) | Post-emergence action against PHBPU in % ([11]; dosage 80 g/ha) | Pre-emergence action against DIGSA in % [12, 25] | Pre-emergence action against DIGSA in % ([12]; dosage 320 g/ha) | Pre-emergence action against ECHCG in % ([13]; dosage 320 g/ha) | Pre-emergence action against SETVI in % (Setaria viridis (SETVI) [14]; dosage 320 g/ha) | Pre-emergence action against ALOMY ([15]; 80 g/ha) | Pre-emergence action against ALOMY ([15]; 320 g/ha) | Pre-emergence action against AVEFA in % (Avena fatua (AVEFA) [16]) | Post-emergence action against VERPE in % ([19]; dosage 80 g/ha) | other results
COCCOCCOC(=O)COc1nn(-c2ncccc2F)c(-c2ccc(F)nc2)c1Br [Example I-37] | 100% | 90% | 90% | 80% | 90% | 100% | 100% | 100% | 80% | 90% | 100% | 80% | 100% | 100% | 100% | 100% | 100% | 100% | 90% | 80% | Post-emergence action against SETVI in % (Setaria viridis (SETVI) [5]; dosage 80 g/ha): 80%; Pre-emergence action against LOLRI in % (Lolium rigidum (LOLRI) [6]; dosage 80 g/ha): 80%; Pre-emergence action against AMARE in % ([10]; 80 g/ha): 100%; Pre-emergence action against SETVI in % (Setaria viridis (SETVI) [14]; dosage 80 g/ha): 100%; Post-emergence action against ABUTH in % [17]: 80%; Post-emergence action against ECHCG in % ([18]; dosage 80 g/ha): 80%; Post-emergence action against AMARE in % [20, 26]: 90%; Pre-emergence action against VERPE in % ([21]; dosage 80 g/ha): 80%; Pre-emergence action against VERPE in % ([21]; dosage 320 g/ha): 100%
C=C(COC(=O)[C@@H](C)Oc1nn(-c2ccccn2)c(-c2ccc(F)nc2)c1Cl)C(=O)OC [Example I-322] | 80% | 80% |  | 80% | 90% | 100% | 100% | 80% | 80% | 90% | 100% | 80% | 100% | 100% | 100% | 100% | 80% | 100% | 90% | 80% | Post-emergence action against DIGSA in % ([2]; 320 g/ha): 80%; Post-emergence action against ALOMY in % ([3]; 320 g/ha): 80%; Post-emergence action against SETVI in % (Setaria viridis (SETVI) [5]; dosage 80 g/ha): 80%; Post-emergence action against SETVI in % (Setaria viridis (SETVI) [5]; dosage 320 g/ha): 80%; Post-emergence action against LOLRI in % (Lolium rigidum (LOLRI) [22]; dosage 80 g/ha): 80%; Post-emergence action against LOLRI in % (Lolium rigidum (LOLRI) [22]; dosage 320 g/ha): 80%; Pre-emergence action against LOLRI in % (Lolium rigidum (LOLRI) [6]; dosage 80 g/ha): 90%; Post-emergence action against POLCO in % ([8]; dosage 320 g/ha): 80%; Post-emergence action against AVEFA in % (Avena fatua (AVEFA) [23]; 80 g/ha): 80%; Post-emergence action against AVEFA in % (Avena fatua (AVEFA) [23]; 320 g/ha): 80%; Post-emergence action against ORYSA in % (Oryza sativa (ORYSA); [27]): 10%; Post-emergence action against PHBPU in % ([11]; dosage 320 g/ha): 80%; Pre-emergence action against ECHCG in % ([13]; dosage 80 g/ha): 80%; Pre-emergence action against SETVI in % (Setaria viridis (SETVI) [14]; dosage 80 g/ha): 90%; Post-emergence action against VIOTR in % (Viola tricolor (VIOTR) [24]; 80 g/ha): 80%; Post-emergence action against VIOTR in % (Viola tricolor (VIOTR) [24]; 320 g/ha): 80%; Post-emergence action against ECHCG in % ([18]; dosage 320 g/ha): 80%; Post-emergence action against VERPE in % ([19]; 320 g/ha, VERPE): 80%; Post-emergence action against AMARE in % [20, 26]: 80%; Post-emergence action against AMARE in % ([20]; 320 g/ha, visual rating about 3 weeks after treatment): 80%
CCOC(=O)COc1nn(-c2ncccc2F)c(-c2ccc(F)nc2)c1C(F)(F)F [Example I-56] | 100% | 90% | 90% | 80% | 90% | 100% | 100% | 100% | 80% | 90% | 100% | 80% | 100% | 100% | 100% | 100% | 100% | 100% | 100% | 80% | Pre-emergence action against LOLRI in % (Lolium rigidum (LOLRI) [6]; dosage 80 g/ha): 100%; Post-emergence action against AVEFA in % (Avena fatua (AVEFA) [23]; 80 g/ha): 80%; Post-emergence action against ORYSA in % (Oryza sativa (ORYSA); 20 g/ha, effect vs untreated controls): 0%; Post-emergence action against ORYSA in % (Oryza sativa (ORYSA); [27]): 0%; Post-emergence action against ZEAMX in % (crop plant compatibility) (Zea mays (ZEAMX); 20 g/ha, ZEAMX, effect in comparison to untreated controls): 0%; Post-emergence action against ZEAMX in % (Zea mays (ZEAMX); crop plant compatibility, 80 g/ha, effect vs untreated controls): 0%; Pre-emergence action against AMARE in % ([10]; 80 g/ha): 100%; Post-emergence action against VIOTR in % (Viola tricolor (VIOTR) [24]; 80 g/ha): 80%; Post-emergence action against ABUTH in % [17]: 80%; Post-emergence action against AMARE in % [20, 26]: 80%; Pre-emergence action against VERPE in % ([21]; dosage 320 g/ha): 100%
CCOC(=O)COc1nn(-c2ncccc2F)c(-c2ccc(F)nc2)c1Cl [Example I-38] | 100% | 90% | 100% | 90% | 100% | 100% | 100% | 100% | 80% | 90% | 100% | 90% | 100% | 100% | 100% | 100% | 100% | 100% | 100% | 80% | Pre-emergence action against MATIN in % ([1]; dosage 80 g/ha): 100%; Post-emergence action against SETVI in % (Setaria viridis (SETVI) [5]; dosage 80 g/ha): 80%; Pre-emergence action against AMARE in % ([10]; 80 g/ha): 100%; Pre-emergence action against SETVI in % (Setaria viridis (SETVI) [14]; dosage 80 g/ha): 100%; Post-emergence action against VIOTR in % (Viola tricolor (VIOTR) [24]; 80 g/ha): 80%; Post-emergence action against ABUTH in % [17]: 80%; Post-emergence action against ECHCG in % ([18]; dosage 80 g/ha): 90%; Pre-emergence action against VERPE in % ([21]; dosage 320 g/ha): 100%
